Laboratory results reported in PMC7822874, “Chemoprotective antimalarials identified through quantitative high-throughput screening of Plasmodium blood and liver stage parasites” (Scientific Reports, 2021).
Values joined by “and” are separate entries in the source; they are usually repeats but may differ in a detail not shown here. Equal entries are not always repeated. Where two headings read alike, the source gives them in different places.

Assays:
[1] = test system: T1, Plasmodium falciparum Dd2-attB (parental line), asexual blood stages; assay: microbe, parasite or virus in culture; parameters: replicate k of 3 (each line is one of three independent assays; the three lines of one compound and parasite line follow each other); conditions: n = 1; for AC50: Plasmodium falciparum, DD2, 72 h; for Individual replicates / Log AC50 (M): 72 h
T1 construct: Dd2-attB, the isogenic parental line
Protocol: (§1) The overexpression of the fumarate-dependent yeast DHODH confers resistance to compounds that inhibit the parasite mETC, or the parasite DHODH enzyme that depends on ubiquinone provided by the parasite mETC. Assays were performed in three independent assays on a subset of compounds, and differences between the Dd2-attB parental line and the ScDHODH transgenic line were analyzed using two-sided Student’s t-tests.

[2] = test system: T2, Plasmodium falciparum Dd2-attB-ScDHODH (transgenic line expressing yeast DHODH), asexual blood stages; assay: organism not typed; parameters: replicate k of 3 (each line is one of three independent assays; the three lines of one compound and parasite line follow each other); conditions: 72 h, n = 1; for AC50: read-out: Individual replicates / Log AC50 (converted)
T2 construct: Dd2-attB-ScDHODH, the transgenic line that expresses yeast DHODH
Protocol: as §1

[3] = test system: P. berghei-ANKA-GFP-LucCON liver stage parasites in HepG2-A16-CD81EGFP cells; assay: P. berghei liver stage Pb-Luc assay, Method 1 (UCSD, 1536-well); assay type: cell-based, Plasmodium berghei; conditions: Plasmodium berghei, 48 h, average of 2 wells, 1536-well plate; for activity at 1 µM: nominal 1 uM (10 mM stock), […] for 15 mM, 1.2 uM for 12 mM, 2 uM for 20 mM stock; for activity at 3 µM: nominal 3 uM (10 mM stock), 4.5 uM for 15 mM, 3.6 uM for 12 mM, 6 uM for 20 mM stock; on all read-outs here: reference of the scale not given here
[4] = test system: Plasmodium falciparum Dd2 asexual blood stage parasites; assay: microbe, parasite or virus in culture; parameters: species or system Plasmodium falciparum Dd2 in human erythrocytes; single determination (one 11-point concentration-response curve); conditions: Plasmodium falciparum, DD2, Erythrocyte, 72 h; read-out: AC50
HepG2-A16-CD81EGFP cells = conditions: average of 2 wells, repeat 2; for HepG2 viability signal, 1 uM, repeat 2: nominal 1 uM (10 mM stock), […] for 15 mM, 1.2 uM for 12 mM, 2 uM for 20 mM stock; for HepG2 viability signal, 3 uM, repeat 2: nominal 3 uM (10 mM stock), 4.5 uM for 15 mM, 3.6 uM for 12 mM, 6 uM for 20 mM stock
in vitro = conditions: human, HepG2-A16-CD81EGFP cells, uninfected
[5] = read-out: Individual replicates / Log AC50 (converted)
[6] = repeat 1, read-out: Pb-Luc signal, 1 uM, repeat 1
[7] = repeat 2, read-out: Pb-Luc signal, 1 uM, repeat 2
[8] = repeat 3, read-out: Pb-Luc signal, 1 uM, repeat 3
[9] = repeat 1, read-out: Pb-Luc signal, 3 uM, repeat 1
[10] = repeat 2, read-out: Pb-Luc signal, 3 uM, repeat 2
[11] = repeat 3, read-out: Pb-Luc signal, 3 uM, repeat 3

## O=C(O)c1ccc(O)c2ncc(N3CCN(Cc4ccccc4)CC3)cc12 [NCGC00241045-03]
[1]; [5]
  AC50: 1.78e-05 M

## O=C(O)c1ccc(O)c2ncc(N3CCN(Cc4ccccc4)CC3)cc12 [NCGC00241045-04]
[1]
  Individual replicates / Log AC50 (M): -4.6986 Log AC50 (M) and -4.7986 Log AC50 (M) (2×)

## O=C(O)c1ccc(O)c2ncc(N3CCCCC3CCc3ccccn3)cc12 (centres unmarked) [NCGC00241756-01]
[1]; [5]
  AC50: 2e-05 M

## O=C(NCCCN1CCNCC1)c1cccc(-c2cc(O)c3ncccc3c2)c1 [NCGC00244531-01]
[1]; [5]
  AC50: 1.59e-05 M

## O=C(NC1CC1)c1cccc(-c2cc(O)c3ncccc3c2)c1 [NCGC00247738-01]
[1]; read-out: Individual replicates / Log AC50 (M) (converted)
  AC50: 1.78e-05 M

## CN(C)CCCCCCNC(=O)c1cccc(-c2cc(O)c3ncccc3c2)c1 [NCGC00247743-01]
[1]; [5]
  AC50: 2e-05 M

## O=C(NCCCN1CC[S+](=O)([O-])CC1)c1cccc(-c2cc(O)c3ncccc3c2)c1 [NCGC00249378-01]
[2]
  Individual replicates / Log AC50 (M): -4.6986 Log AC50 (M)
  AC50: 20 µM

## CCOC(=O)CCNc1cc(N2CCc3ccccc3CC2)nc(-c2ccccn2)n1 [NCGC00344626-02]
[1]
  Individual replicates / Log AC50 (M): -5.0486 Log AC50 (M) and -5.0986 Log AC50 (M)
[1]; [5]
  AC50: 6.33e-06 M

## CCOC(=O)c1ccncc1Nc1nn(CCN2CCC(F)(F)CC2)c2ccc(F)cc12 [NCGC00388588-01]
[1]
  Individual replicates / Log AC50 (M): -4.7486 Log AC50 (M) and -4.7986 Log AC50 (M)
[1]; [5]
  AC50: 1.59e-05 M

## c1ccc(CCn2nc(-c3cnccn3)nc2CCCN2CCCCC2)cc1 [NCGC00390063-01]
[1]; [5]
  AC50: 7.97e-06 M

## NC(=O)c1csc(-n2cc(Cc3ccc([S+](N)(=O)[O-])cc3)c(-c3cccc(-c4ccccc4)c3)n2)n1 [NCGC00390757-01]
[1]
  Individual replicates / Log AC50 (M): -4.9986 Log AC50 (M) and -4.8486 Log AC50 (M)
[1]; [5]
  AC50: 2e-05 M

## Cc1nn2c(c1-c1ccccc1-c1ccccc1)N(Cc1ccccc1)CCC2 [NCGC00420451-02]
[1]; [5]
  AC50: 1.59e-05 M

## Cn1nc(C(=O)NCC(=O)N2CCCCCCNC(=O)CC2c2ccccc2)c2ccccc21 (centres unmarked) [NCGC00467428-01]
[3]; [6]
  activity at 1 µM: 90.2%
[3]; [7]
  activity at 1 µM: 74%
[3]; [8]
  activity at 1 µM: 75.4%
[3]; [9]
  activity at 3 µM: 105%
[3]; [10]
  activity at 3 µM: 88.2%
[3]; [11]
  activity at 3 µM: 105%
[4]
  AC50: 2.11 µM
HepG2-A16-CD81EGFP cells
  HepG2 viability signal, 1 uM, repeat 2: 105.85%
  HepG2 viability signal, 3 uM, repeat 2: 101.81%
In vitro
  viability at 48 h, 1 µM: 108%
  viability at 48 h, 3 µM: 106%

## Cc1cnc(CC2CCN([S+](=O)([O-])c3ccccc3)CC2)n1Cc1ccccc1 [NCGC00469740-01]
[3]; [6]
  activity at 1 µM: 97.2%
[3]; [7]
  activity at 1 µM: 133%
[3]; [8]
  activity at 1 µM: 138%
[3]; [9]
  activity at 3 µM: 81.1%
[3]; [10]
  activity at 3 µM: 76.7%
[3]; [11]
  activity at 3 µM: 90.7%
[4]
  AC50: 5.31 µM
HepG2-A16-CD81EGFP cells
  HepG2 viability signal, 1 uM, repeat 2: 97.06%
  HepG2 viability signal, 3 uM, repeat 2: 98.63%
In vitro
  viability at 48 h, 1 µM: 94.7%
  viability at 48 h, 3 µM: 96.4%

## COc1ccccc1NC(=O)N1CCOc2ccc(CN3CCc4ccccc4C3)cc2C1 [NCGC00471234-01]
[3]; [6]
  activity at 1 µM: 118%
[3]; [7]
  activity at 1 µM: 82%
[3]; [8]
  activity at 1 µM: 108%
[3]; [9]
  activity at 3 µM: 110%
[3]; [10]
  activity at 3 µM: 87.1%
[3]; [11]
  activity at 3 µM: 47%
[4]
  AC50: 2.37 µM
HepG2-A16-CD81EGFP cells
  HepG2 viability signal, 1 uM, repeat 2: 96.28%
  HepG2 viability signal, 3 uM, repeat 2: 96.50%
In vitro
  viability at 48 h, 1 µM: 98%
  viability at 48 h, 3 µM: 96.8%

## CN1CCC(CNCc2nccc3c(=O)[nH]c(COc4ccc(Cc5ccccc5)cc4)nc23)C1 (centres unmarked) [NCGC00489856-02]
[1]
  Individual replicates / Log AC50 (M): -4.7486 Log AC50 (M)

## c1ccc(CN2CCCn3ncc(-c4ccccc4-c4ccccc4)c32)cc1 [NCGC00499205-01]
[1]
  Individual replicates / Log AC50 (M): -4.8486 Log AC50 (M)
[1]; [5]
  AC50: 1.59e-05 M

## Cc1nn2c(c1-c1ccnn1C(C)C)N(CCCc1ccccc1)CCC2 [NCGC00499719-01]
[2]
  AC50: 17.8 µM
